The source of these data is article PMC10878790 (The Journal of Biological Chemistry, 2024).

Ends that are not written are not given here.

In one assay the test system is MCF-7 cells. The experiment in a line: Wound healing assay. It counts as cell-based. The note with it: scrambled peptides compared to LA3IK and RP-7 at equivalent concentrations. How it is done:
(§1) The wound healing assay was performed using two breast cancer cell lines, MDA-MB-231 and MCF-7, and two prostate cancer cell lines, PC-3 and DU-145, to evaluate the antimigratory capacity of the peptides. […] The cells were grown to approximately 80% confluency in 12-well tissue culture plates, and a cell-free area was created by scraping the monolayer. The peptides were added, and the cells were incubated at 37 °C with 5% CO2 for 24 h. Wound closure was assessed by imaging the wounds at 0 and 24 h, and the wound areas were quantified using ImageJ software (https://imagej.net/ij/). In the transwell invasion assay, MDA-MB-231 cells were serum starved for 4 h followed by a pretreatment with increasing concentrations of each peptide in a 0.1% serum-containing DMEM for 24 h. The cells were then trypsinized, resuspended in same media for the second treatment of peptides, and counted. Next, 40,000 cells were resuspended in 0.1% serum containing DMEM and added to the upper chamber of Transwell plates (Corning Life Sciences) with a polyethylene terephthalate membrane (6.4 mm diameter, 8 μm pore size). The bottom chambers were filled with DMEM containing 10% FBS as a chemoattractant. The transwell plates were incubated at 37 °C with 5% CO2 for 24 h to allow the invasion of cells through the membrane. The invaded cells on the lower side of the membrane were fixed with 4% paraformaldehyde for 15 min, followed by a PBS wash. The membrane inserts were further fixed with ice-cold methanol for 20 min and stained with 0.25% (w/v) crystal violet. After incubation, the noninvasive cells on the upper surface of the membrane were gently removed using a cotton swab. Random fields were chosen for imaging, and the number of invaded cells was counted using ImageJ software. The results were expressed as the average number of invaded cells compared with the control.

The subject of assay [1] is DU-145 cells. Kind of assay: Wound healing assay. It counts as cell-based. The note with it: scrambled peptides compared to LA3IK and RP-7 at equivalent concentrations. How it is done:
as §1

In a further assay the test system is PC-3 cells. The experiment in a line: Wound healing assay. It counts as cell-based. As to conditions: scrambled peptides compared to LA3IK and RP-7 at equivalent concentrations. How it is done: as §1
In assay [2] the test system is MDA-MB-231 cells. The experiment in a line: Wound healing assay. It counts as cell-based. As to conditions: equimolar peptide concentrations; compared to untreated cells. As for the experimental part:
as §1

Assay [3] deals with DU-145 cells. The experiment in a line: Quantitative real-time PCR of EMT-related genes. It counts as cell-based. The note with it: 48 h, 90 μM; for inhibition of the majority of the genes examined in the PCR analysis: except for SNAIL. How it is done: 18S RNA transcript levels were used for internal control. […] E-cadherin and SNAIL are increased and decreased, respectively, when probed with antibodies specific for these proteins as compared to the untreated. […] Densitometry was determined and normalized to total protein or β-actin. Peptide concentration: 90 μM. All the assays were performed in triplicates and the results are expressed as means ± SD. […] EMT, epithelial-mesenchymal transition; MMP-9, matrix metalloproteinase 9; NF-κB, nuclear factor kappa B.
Total RNA was extracted using the TRIzol reagent (Invitrogen). One microgram of total RNA was used for complementary DNA reverse transcription using the Superscript-III First Strand Synthesis kit (Invitrogen) following the manufacturer's protocol. All real-time PCR reactions were performed in duplicates in a 20 μl volume using SYBR Green Master Mix (Invitrogen) in a Realplex2 Mastercycler ep gradient S thermal cycler (Eppendorf). The PCR program followed for all the primers was an activation at 95 °C for 15 min, followed by 40 cycles of 95 °C for 30 s, 54 °C for 1 min, and 72 °C for 45 s. The reaction was finally put to hold at 4 °C. Subsequently, 18S was used as the reference gene for the mRNA levels. Relative change in gene expression was calculated according to the ΔΔCt method ([53], [54]).
(In general: Quantitative PCR measures a nucleic acid by following its amplification.)

The next assay relates to NIH-3T3. It counts as cell-based, murine. The note with it: MTT, 48 hours; normal cells. As for the experimental part: (§2) MDA-MB-231, MCF-7, DU-145, PC-3, and NIH-3T3 cell lines were procured from the American Type Culture Collection and used within ten consecutive passages to ensure consistent cell behavior. MDA-MB-231, MCF-7, and NIH-3T3 cells were maintained at 37 °C and 5% CO2 in Dulbecco's modified Eagle's medium (DMEM) high glucose (Hyclone) supplemented with 10% fetal bovine serum (FBS) and 1% Antibiotic-Antimycotic (Gibco), while DU-145 and PC-3 cells were grown in RPMI-1640 supplemented with the same concentration of FBS and Antibiotic-Antimycotic. The media was replenished every 2 days. Cells were checked for mycoplasma at regular intervals using a PCR-based Mycoplasma detection kit plasmocin prophylactic (InvivoGen). In all experiments, cells were maintained in serum-free DMEM for 6 h before peptide treatment. Peptide treatment was done in the media containing 0.1% fetal bovine serum for 48 h in all the experiments unless otherwise stated.
(§3) Cell viability was determined by 3-[4,5-dimethylthiazol-2-yl]-2,5 diphenyl tetrazolium bromide (MTT) assay as described earlier ([52]). ProTox-II "Prediction of Toxicity of Chemicals" web server was used for toxicology assessment ([19]). See the Supporting Information for full experimental details.
(§4) Full Experimental Method for Cell Viability Assay:
(§5) Cell viability of murine NIH- 3T3 cells, as well as MDA- MB -231 , MC F-7, PC- 3, and DU-145 cells, wa s assessed through the MT T assay as described previously(1). Approximately
(§6) 5000 cells per well were seeded in a 96-well plate and allowed to incubate overnight for attachment. Following attachment, the growth medium was replaced wit h a fresh medium
(§7) containing serial dilutions of peptides. The cells we re then incubated for 48 hours in a 5% CO2 incubator . After incubation, 10 μl of a 5 mg/mL MT T solution was introduced to each
(§8) well and left to incubate for an additional 2 hours . Subsequently, the entire medium, along wit h the MT T solution, was aspirated, and the remaining formazan crystals were dissolved
(§9) in 200 μl of DMSO. The absorbance was measured at 595 nm using a Biotek Synergy 2 Plate Reader. […]
(§10) ProTox-II "Prediction of Toxicity of Chemicals" we b server was used for toxicology assessment. […]

The test system of a further assay is MDA-MB-231. It counts as cell-based. The note with it: MTT, 48 hours. How it is done:
as §2, §3, §4, §5, §6, §7, §8, §9, §10

In a further assay the test system is DU-145. It counts as cell-based. As to conditions: MTT, 48 hours. How it is done: as §2, §3, §4, §5, §6, §7, §8, §9, §10
The next assay relates to PC-3. It counts as cell-based. The note with it: MTT, 48 hours. How it is done:
as §2, §3, §4, §5, §6, §7, §8, §9, §10

The next assay relates to MCF-7. It counts as cell-based. As to conditions: MTT, 48 hours. How it is done:
as §2, §3, §4, §5, §6, §7, §8, §9, §10

Assay [4] concerns MDA-MB-231 cells. Kind of assay: Transwell invasion assay. It counts as cell-based. The note with it: 24 h. As for the experimental part:
as §1

As a reminder, the IC50 is the concentration that inhibits the measured activity by half. As to Ac-LAKAVI-NH2 [LA3IK-SCR], the “antimigratory activity in wound healing assay” value in the assay with MCF-7 cells, with DU-145 cells [1] and in the assay with PC-3 cells was “reduced antimigratory activity” in each case. For the same substance, the inhibition of migration result in the assay with MDA-MB-231 cells [2] is listed as “nonsignificant inhibition”. Also, the “gene expression in Zeb-1 and SNAIL” value in the assay on DU-145 cells [3] was “statistically diminished”. Besides, the “inhibition of the majority of the genes examined in the PCR analysis” value in the assay on DU-145 cells [3] is on record as “statistically nonsignificant inhibition”. Moreover, the IC50 in the assay on NIH-3T3 was > 600 µM; in the assay with MDA-MB-231, 243 ± 8.16 µM; with DU-145, 352 ± 7.18 µM; with PC-3, 319 ± 13.6 µM; with MCF-7, 133 ± 9.52 µM.
On to Ac-RPPLVIC-NH2 [RP-7 SCR], for which the “antimigratory activity in wound healing assay” value in the assay with MCF-7 cells, in the assay on DU-145 cells [1] and in the assay on PC-3 cells was “reduced antimigratory activity” throughout. In addition, the inhibition of migration result in the assay on MDA-MB-231 cells [2] is on record as “nonsignificant inhibition”. For the same substance, the “expression of SLUG and Zeb-1” value with DU-145 cells [3] is listed as “reduced expression”. In the assay on DU-145 cells [3], the “inhibition of the majority of the genes examined in the PCR analysis” value is “statistically nonsignificant inhibition”. Further, the IC50 in the assay with NIH-3T3 is > 600 µM; in the assay on MDA-MB-231 it was 156 ± 8.15 µM; in the assay with DU-145 it was 137 ± 5.98 µM; in the assay on PC-3 it was 128 ± 11.7 µM; with MCF-7 it was 150 ± 10.3 µM.
With Ac-SRPPCVIL-NH2 [SR-8], in the assay with MDA-MB-231 cells [4], the “number of invaded MDA-MB-231 cells / inhibition of invasion” value is “limited inhibition”. In addition, the inhibition of migration result in the assay on MDA-MB-231 cells [2] is recorded as “limited inhibition”. The IC50 with NIH-3T3 was > 600 µM; with MDA-MB-231, 528.3 ± 4.57 µM; in the assay on DU-145 it was > 600 µM; in the assay on PC-3, > 600 µM; with MCF-7 it was 141 ± 12.9 µM.
Take LASAVK [LA-6, LASAVK]: in the assay on MDA-MB-231 cells [4], the “number of invaded MDA-MB-231 cells / inhibition of invasion” value was “limited inhibition”. For the same substance, in the assay on MDA-MB-231 cells [2], the inhibition of migration result is on record as “limited inhibition”. Besides, the IC50 with NIH-3T3, with MDA-MB-231, in the assay on DU-145, in the assay on PC-3 and in the assay with MCF-7 was > 600 µM in each case.
